Assay results as given in patent US6479435B1, “Diaryl ethers and processes for their preparation and herbicidal and desiccant compositions containing them” (ISK Americas Incorporated, priority 1997, dated 2002).

What was measured:
Type in all cases: in vivo
[1] = test system: green foxtail (Setaria viridis, SETVI); assay: Post-emerge greenhouse herbicide test, phytotoxicity rating; details: 14 days after application
How it was run: (§1)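 Plants at the 2-3 leaf stage, sown 8-21 days earlier, were track-sprayed post-emergence with compound in acetone plus 0.25% v/v non-ionic surfactant at 63-1000 g ai/ha (187 l/ha). Damage was rated at 14 days on a 0-100 scale (0 none, 100 all plants dead), for both crop injury and weed control.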

[2] = test system: large crabgrass (Digitaria sanguinalis, DIGSA); assay: as above; details: 14 days after application
How it was run: as §1

[3] = test system: sicklepod (Cassia obtusifolia, CASOB); assay: as above; details: 14 days after application
How it was run: as §1

[4] = test system: ivyleaf morningglory (Ipomoea hederacea, IPOHE); assay: as above; details: 14 days after application
How it was run: as §1

[5] = test system: redroot pigweed (Amaranthus retroflexus, AMARE); assay: as above; details: 14 days after application
How it was run: as §1

[6] = test system: velvetleaf (Abutilon theophrasti, ABUTH); assay: as above; details: 14 days after application
How it was run: as §1

[7] = test system: lambsquarters (Chenopodium album, CHEAL); assay: as above; details: 14 days after application
How it was run: as §1

[8] = test system: barnyardgrass (Echinochloa crusgalli, ECHCG); assay: as above; details: 14 days after application
How it was run: as §1

[9] = test system: Johnsongrass (Sorghum halepense, SORHA); assay: as above; details: 14 days after application
How it was run: as §1

[10] = test system: green foxtail (Setaria viridis, SETVI); assay: Pre-emerge greenhouse herbicide test, phytotoxicity rating; details: 14 days after application, rating scale 0-100
How it was run: (§2)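 Seeds sown in sandy loam one day before track-sprayer application of acetone solutions at 125–1000 g ai/ha (187 l/ha), then surface-watered to incorporate and bottom-watered. Injury scored visually at 14 days on a 0–100 scale (0 no damage, 100 complete death).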

[11] = test system: large crabgrass (Digitaria sanguinalis, DIGSA); assay: as above; details: 14 days after application, rating scale 0-100
How it was run: as §2

[12] = test system: sicklepod (Cassia obtusifolia, CASOB); assay: as above; details: 14 days after application, rating scale 0-100
How it was run: as §2

[13] = test system: ivyleaf morningglory (Ipomoea hederacea, IPOHE); assay: as above; details: 14 days after application, rating scale 0-100
How it was run: as §2

[14] = test system: redroot pigweed (Amaranthus retroflexus, AMARE); assay: as above; details: 14 days after application, rating scale 0-100
How it was run: as §2

[15] = test system: velvetleaf (Abutilon theophrasti, ABUTH); assay: as above; details: 14 days after application, rating scale 0-100
How it was run: as §2

[16] = test system: lambsquarters (Chenopodium album, CHEAL); assay: as above; details: 14 days after application, rating scale 0-100
How it was run: as §2

[17] = test system: common ragweed (Ambrosia artemisiifolia L., AMBEL); assay: as above; details: 14 days after application, rating scale 0-100
How it was run: as §2

[18] = test system: barnyardgrass (Echinochloa crusgalli, ECHCG); assay: as above; details: 14 days after application, rating scale 0-100
How it was run: as §2

[19] = test system: Johnsongrass (Sorghum halepense, SORHA); assay: as above; details: 14 days after application, rating scale 0-100
How it was run: as §2

[20] = test system: common ragweed (Ambrosia artemisiifolia L., AMBEL); assay: Post-emerge greenhouse herbicide test, phytotoxicity rating; details: 14 days after application
How it was run: as §1

[21] = test system: soybean (Glycine max L., var. Pella 86, SOY); assay: Post-emerge greenhouse test, crop damage rating; details: 14 days after application
How it was run: as §1

[22] = test system: soybean (Glycine max L., var. Pella 86, SOY); assay: Pre-emerge greenhouse test, crop damage rating; details: 14 days after application, rating scale 0-100
How it was run: as §2

[23] = test system: field corn (Zea mays L., var. Dekalb 535, CORN); assay: Post-emerge greenhouse test, crop damage rating; details: 14 days after application
How it was run: as §1

[24] = test system: upland rice (Oryza sp., var.Tebonnet, RICE); assay: Post-emerge greenhouse test, crop damage rating; details: 14 days after application
How it was run: as §1

[25] = test system: field corn (Zea mays L., var. Dekalb 535, CORN); assay: Pre-emerge greenhouse test, crop damage rating; details: 14 days after application, rating scale 0-100
How it was run: as §2

[26] = test system: upland rice (Oryza sp., var.Tebonnet, RICE); assay: Pre-emerge greenhouse test, crop damage rating; details: 14 days after application, rating scale 0-100
How it was run: as §2

## O=c1n(CCCF)nnn1-c1cc(Oc2ncccc2[N+](=O)[O-])c(Cl)cc1F [Compound 6-2]
[1]; 63 g al/ha
  SETVI phytotoxicity rating (0-100): 10
[1]; 500 g al/ha
  SETVI phytotoxicity rating (0-100): 10
[2]; 63 g al/ha
  DIGSA phytotoxicity rating (0-100): 0
[2]; 500 g al/ha
  DIGSA phytotoxicity rating (0-100): 0
[3]; 63 g al/ha
  CASOB phytotoxicity rating (0-100): 0
[3]; 500 g al/ha
  CASOB phytotoxicity rating (0-100): 10
[4]; 63 g al/ha
  IPOHE phytotoxicity rating (0-100): 20
[4]; 500 g al/ha
  IPOHE phytotoxicity rating (0-100): 90
[5]; 63 g al/ha
  AMARE phytotoxicity rating (0-100): 40
[5]; 500 g al/ha
  AMARE phytotoxicity rating (0-100): 95
[6]; 63 g al/ha
  ABUTH phytotoxicity rating (0-100): 98
[6]; 500 g al/ha
  ABUTH phytotoxicity rating (0-100): 100
[7]; 63 g al/ha
  CHEAL phytotoxicity rating (0-100): 50
[7]; 500 g al/ha
  CHEAL phytotoxicity rating (0-100): 90
[8]; 63 g al/ha
  ECHCG phytotoxicity rating (0-100): 0
[8]; 500 g al/ha
  ECHCG phytotoxicity rating (0-100): 30
[9]; 63 g al/ha
  SORHA phytotoxicity rating (0-100): 0
[9]; 500 g al/ha
  SORHA phytotoxicity rating (0-100): 20
[10]; 125 g ai/ha
  phytotoxicity rating SETVI: 30
[10]; 500 g ai/ha
  phytotoxicity rating SETVI: 70
[11]; 125 g ai/ha
  phytotoxicity rating DIGSA: 0
[11]; 500 g ai/ha
  phytotoxicity rating DIGSA: 60
[12]; 125 g ai/ha
  phytotoxicity rating CASOB: 20
[12]; 500 g ai/ha
  phytotoxicity rating CASOB: 0
[13]; 125 g ai/ha
  phytotoxicity rating IPOHE: 10
[13]; 500 g ai/ha
  phytotoxicity rating IPOHE: 40
[14]; 125 g ai/ha
  phytotoxicity rating AMARE: 95
[14]; 500 g ai/ha
  phytotoxicity rating AMARE: 99
[15]; 125 g ai/ha
  phytotoxicity rating ABUTH: 90
[15]; 500 g ai/ha
  phytotoxicity rating ABUTH: 100
[16]; 125 g ai/ha
  phytotoxicity rating CHEAL: 100
[16]; 500 g ai/ha
  phytotoxicity rating CHEAL: 100
[17]; 125 g ai/ha
  phytotoxicity rating AMBEL: 30
[17]; 500 g ai/ha
  phytotoxicity rating AMBEL: 40
[18]; 125 g ai/ha
  phytotoxicity rating ECHCG: 0
[18]; 500 g ai/ha
  phytotoxicity rating ECHCG: 10
[19]; 125 g ai/ha
  phytotoxicity rating SORHA: 0
[19]; 500 g ai/ha
  phytotoxicity rating SORHA: 0
[20]; 63 g al/ha
  AMBEL phytotoxicity rating (0-100): 10
[20]; 500 g al/ha
  AMBEL phytotoxicity rating (0-100): 30
[21]; 63 g al/ha
  SOY crop damage rating (0-100): 20
[21]; 500 g al/ha
  SOY crop damage rating (0-100): 30
[22]; 125 g ai/ha
  crop damage rating SOY: 10
[22]; 500 g ai/ha
  crop damage rating SOY: 15
[23]; 63 g al/ha
  CORN crop damage rating (0-100): 5
[23]; 500 g al/ha
  CORN crop damage rating (0-100): 5
[24]; 63 g al/ha
  RICE crop damage rating (0-100): 0
[24]; 500 g al/ha
  RICE crop damage rating (0-100): 30
[25]; 125 g ai/ha
  crop damage rating CORN: 0
[25]; 500 g ai/ha
  crop damage rating CORN: 0
[26]; 125 g ai/ha
  crop damage rating RICE: 20
[26]; 500 g ai/ha
  crop damage rating RICE: 10

## N#Cc1cccnc1Oc1cc(-n2nnn(CCCF)c2=O)c(F)cc1Cl [Compound 6-4]
[1]; 63 g al/ha
  SETVI phytotoxicity rating (0-100): 20
[1]; 500 g al/ha
  SETVI phytotoxicity rating (0-100): 40
[2]; 63 g al/ha
  DIGSA phytotoxicity rating (0-100): 0
[2]; 500 g al/ha
  DIGSA phytotoxicity rating (0-100): 0
[3]; 63 g al/ha
  CASOB phytotoxicity rating (0-100): 15
[3]; 500 g al/ha
  CASOB phytotoxicity rating (0-100): 50
[4]; 63 g al/ha
  IPOHE phytotoxicity rating (0-100): 65
[4]; 500 g al/ha
  IPOHE phytotoxicity rating (0-100): 85
[5]; 63 g al/ha
  AMARE phytotoxicity rating (0-100): 75
[5]; 500 g al/ha
  AMARE phytotoxicity rating (0-100): 99
[6]; 63 g al/ha
  ABUTH phytotoxicity rating (0-100): 90
[6]; 500 g al/ha
  ABUTH phytotoxicity rating (0-100): 100
[7]; 63 g al/ha
  CHEAL phytotoxicity rating (0-100): 85
[7]; 500 g al/ha
  CHEAL phytotoxicity rating (0-100): 100
[8]; 63 g al/ha
  ECHCG phytotoxicity rating (0-100): 0
[8]; 500 g al/ha
  ECHCG phytotoxicity rating (0-100): 60
[9]; 63 g al/ha
  SORHA phytotoxicity rating (0-100): 0
[9]; 500 g al/ha
  SORHA phytotoxicity rating (0-100): 80
[10]; 125 g ai/ha
  phytotoxicity rating SETVI: 100
[10]; 500 g ai/ha
  phytotoxicity rating SETVI: 100
[11]; 125 g ai/ha
  phytotoxicity rating DIGSA: 70
[11]; 500 g ai/ha
  phytotoxicity rating DIGSA: 100
[12]; 125 g ai/ha
  phytotoxicity rating CASOB: 50
[12]; 500 g ai/ha
  phytotoxicity rating CASOB: 30
[13]; 125 g ai/ha
  phytotoxicity rating IPOHE: 40
[13]; 500 g ai/ha
  phytotoxicity rating IPOHE: 100
[14]; 125 g ai/ha
  phytotoxicity rating AMARE: 100
[14]; 500 g ai/ha
  phytotoxicity rating AMARE: 100
[15]; 125 g ai/ha
  phytotoxicity rating ABUTH: 100
[15]; 500 g ai/ha
  phytotoxicity rating ABUTH: 100
[16]; 125 g ai/ha
  phytotoxicity rating CHEAL: 100
[16]; 500 g ai/ha
  phytotoxicity rating CHEAL: 100
[17]; 125 g ai/ha
  phytotoxicity rating AMBEL: 0
[17]; 500 g ai/ha
  phytotoxicity rating AMBEL: 40
[18]; 125 g ai/ha
  phytotoxicity rating ECHCG: 0
[18]; 500 g ai/ha
  phytotoxicity rating ECHCG: 95
[19]; 125 g ai/ha
  phytotoxicity rating SORHA: 20
[19]; 500 g ai/ha
  phytotoxicity rating SORHA: 100
[20]; 63 g al/ha
  AMBEL phytotoxicity rating (0-100): 20
[20]; 500 g al/ha
  AMBEL phytotoxicity rating (0-100): 20
[21]; 63 g al/ha
  SOY crop damage rating (0-100): 20
[21]; 500 g al/ha
  SOY crop damage rating (0-100): 60
[22]; 125 g ai/ha
  crop damage rating SOY: 0
[22]; 500 g ai/ha
  crop damage rating SOY: 20
[23]; 63 g al/ha
  CORN crop damage rating (0-100): 10
[23]; 500 g al/ha
  CORN crop damage rating (0-100): 20
[24]; 63 g al/ha
  RICE crop damage rating (0-100): 20
[24]; 500 g al/ha
  RICE crop damage rating (0-100): 35
[25]; 125 g ai/ha
  crop damage rating CORN: 0
[25]; 500 g ai/ha
  crop damage rating CORN: 10
[26]; 125 g ai/ha
  crop damage rating RICE: 15
[26]; 500 g ai/ha
  crop damage rating RICE: 35
